Patent US12662479B2 (Foghorn Therapeutics Inc., priority 2020, dated 2026)

How the values were obtained:
HiBit-BRM fusion protein = biological target: T1, HiBit-BRM fusion protein (Homo sapiens, UniProt P51531); test: HiBiT-BRM cell-based degradation assay (Nano-Glo HiBiT Lytic Detection, 24 h); details: HeLa cells expressing HiBiT-BRM; for DC50: read-out: BRM HiBit Degradation IC50; for BRM HiBit Degradation Maximum measured: top dose 30 μM
T1 construct: expressed in transfected cells
Outline: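 Percent BRM loss was derived from HiBiT luminescence relative to DMSO-treated cells and cells given 2 μM of a known BRM/BRG1 degrader. Treatment lasted 24 h in HiBiT-BRM HeLa cells, with a top final concentration of 30 μM.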

[1] = biological target: T2, HiBit-BRG1 fusion protein (Homo sapiens, UniProt P51532); test: HiBiT-BRG1 cell-based degradation assay (Nano-Glo HiBiT Lytic Detection, 24 h); details: HeLa cells expressing HiBit-BRG1 and LgBit; for DC50: read-out: BRG1 HiBit Degradation IC50; for Dmax: HeLa, top dose 30 μM, read-out: BRG1 HiBit Degradation Maximum measured
T2 construct: expressed in transfected cells
T2 sequence (P51532 whole entry, the tested form may be a part): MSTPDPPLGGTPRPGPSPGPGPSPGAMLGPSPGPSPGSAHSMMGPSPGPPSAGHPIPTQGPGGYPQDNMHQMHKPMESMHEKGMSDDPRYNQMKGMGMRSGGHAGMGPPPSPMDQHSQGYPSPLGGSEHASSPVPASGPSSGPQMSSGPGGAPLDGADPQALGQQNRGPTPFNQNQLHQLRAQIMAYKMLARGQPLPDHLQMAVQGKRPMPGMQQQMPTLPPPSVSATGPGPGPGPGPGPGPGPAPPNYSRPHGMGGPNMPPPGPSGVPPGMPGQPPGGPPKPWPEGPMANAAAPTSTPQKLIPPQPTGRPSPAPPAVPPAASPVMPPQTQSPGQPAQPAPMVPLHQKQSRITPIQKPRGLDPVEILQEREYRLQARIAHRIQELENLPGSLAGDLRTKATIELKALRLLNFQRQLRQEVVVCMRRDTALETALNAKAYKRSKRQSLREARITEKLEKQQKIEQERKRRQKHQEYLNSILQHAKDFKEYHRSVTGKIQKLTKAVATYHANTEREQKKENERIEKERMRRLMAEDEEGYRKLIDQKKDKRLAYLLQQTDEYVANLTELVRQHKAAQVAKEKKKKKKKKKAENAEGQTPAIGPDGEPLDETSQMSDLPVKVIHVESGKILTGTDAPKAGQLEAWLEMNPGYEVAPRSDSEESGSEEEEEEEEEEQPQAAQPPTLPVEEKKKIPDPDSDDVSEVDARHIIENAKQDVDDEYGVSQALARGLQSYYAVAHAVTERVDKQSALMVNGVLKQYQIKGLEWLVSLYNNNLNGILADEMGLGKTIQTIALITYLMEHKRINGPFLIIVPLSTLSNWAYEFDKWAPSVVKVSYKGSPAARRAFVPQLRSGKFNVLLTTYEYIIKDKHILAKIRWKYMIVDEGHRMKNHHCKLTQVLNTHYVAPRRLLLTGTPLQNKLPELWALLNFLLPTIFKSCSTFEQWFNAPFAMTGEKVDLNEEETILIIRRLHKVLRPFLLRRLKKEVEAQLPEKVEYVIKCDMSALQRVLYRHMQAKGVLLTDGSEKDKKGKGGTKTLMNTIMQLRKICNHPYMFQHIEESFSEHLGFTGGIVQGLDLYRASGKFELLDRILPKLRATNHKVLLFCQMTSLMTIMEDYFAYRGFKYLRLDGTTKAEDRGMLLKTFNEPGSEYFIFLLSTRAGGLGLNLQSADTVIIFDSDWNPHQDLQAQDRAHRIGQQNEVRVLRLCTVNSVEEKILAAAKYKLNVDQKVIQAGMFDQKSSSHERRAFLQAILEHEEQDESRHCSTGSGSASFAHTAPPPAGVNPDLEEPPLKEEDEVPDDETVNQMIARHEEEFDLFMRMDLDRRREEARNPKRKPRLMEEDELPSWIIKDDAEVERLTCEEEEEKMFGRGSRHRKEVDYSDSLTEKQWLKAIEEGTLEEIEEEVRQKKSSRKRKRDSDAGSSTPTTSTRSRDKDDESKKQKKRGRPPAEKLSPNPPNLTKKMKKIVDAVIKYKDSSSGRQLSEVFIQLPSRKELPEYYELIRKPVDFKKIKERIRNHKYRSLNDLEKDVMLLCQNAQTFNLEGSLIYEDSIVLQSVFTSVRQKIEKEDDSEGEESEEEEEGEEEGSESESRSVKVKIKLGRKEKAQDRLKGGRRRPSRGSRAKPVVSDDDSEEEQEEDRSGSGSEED
Outline: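 Degradation is scaled from DMSO-treated cells (0%) to cells given 2 μM of a known BRM/BRG1 degrader (100%). HeLa cells stably carrying HiBiT-BRG1 plus LgBiT (5000/well) were lysed with Nano-Glo HiBiT detection reagent, shaken 10 min at RT, and luminescence read.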

T1 sequence (P51531 whole entry, the tested form may be a part): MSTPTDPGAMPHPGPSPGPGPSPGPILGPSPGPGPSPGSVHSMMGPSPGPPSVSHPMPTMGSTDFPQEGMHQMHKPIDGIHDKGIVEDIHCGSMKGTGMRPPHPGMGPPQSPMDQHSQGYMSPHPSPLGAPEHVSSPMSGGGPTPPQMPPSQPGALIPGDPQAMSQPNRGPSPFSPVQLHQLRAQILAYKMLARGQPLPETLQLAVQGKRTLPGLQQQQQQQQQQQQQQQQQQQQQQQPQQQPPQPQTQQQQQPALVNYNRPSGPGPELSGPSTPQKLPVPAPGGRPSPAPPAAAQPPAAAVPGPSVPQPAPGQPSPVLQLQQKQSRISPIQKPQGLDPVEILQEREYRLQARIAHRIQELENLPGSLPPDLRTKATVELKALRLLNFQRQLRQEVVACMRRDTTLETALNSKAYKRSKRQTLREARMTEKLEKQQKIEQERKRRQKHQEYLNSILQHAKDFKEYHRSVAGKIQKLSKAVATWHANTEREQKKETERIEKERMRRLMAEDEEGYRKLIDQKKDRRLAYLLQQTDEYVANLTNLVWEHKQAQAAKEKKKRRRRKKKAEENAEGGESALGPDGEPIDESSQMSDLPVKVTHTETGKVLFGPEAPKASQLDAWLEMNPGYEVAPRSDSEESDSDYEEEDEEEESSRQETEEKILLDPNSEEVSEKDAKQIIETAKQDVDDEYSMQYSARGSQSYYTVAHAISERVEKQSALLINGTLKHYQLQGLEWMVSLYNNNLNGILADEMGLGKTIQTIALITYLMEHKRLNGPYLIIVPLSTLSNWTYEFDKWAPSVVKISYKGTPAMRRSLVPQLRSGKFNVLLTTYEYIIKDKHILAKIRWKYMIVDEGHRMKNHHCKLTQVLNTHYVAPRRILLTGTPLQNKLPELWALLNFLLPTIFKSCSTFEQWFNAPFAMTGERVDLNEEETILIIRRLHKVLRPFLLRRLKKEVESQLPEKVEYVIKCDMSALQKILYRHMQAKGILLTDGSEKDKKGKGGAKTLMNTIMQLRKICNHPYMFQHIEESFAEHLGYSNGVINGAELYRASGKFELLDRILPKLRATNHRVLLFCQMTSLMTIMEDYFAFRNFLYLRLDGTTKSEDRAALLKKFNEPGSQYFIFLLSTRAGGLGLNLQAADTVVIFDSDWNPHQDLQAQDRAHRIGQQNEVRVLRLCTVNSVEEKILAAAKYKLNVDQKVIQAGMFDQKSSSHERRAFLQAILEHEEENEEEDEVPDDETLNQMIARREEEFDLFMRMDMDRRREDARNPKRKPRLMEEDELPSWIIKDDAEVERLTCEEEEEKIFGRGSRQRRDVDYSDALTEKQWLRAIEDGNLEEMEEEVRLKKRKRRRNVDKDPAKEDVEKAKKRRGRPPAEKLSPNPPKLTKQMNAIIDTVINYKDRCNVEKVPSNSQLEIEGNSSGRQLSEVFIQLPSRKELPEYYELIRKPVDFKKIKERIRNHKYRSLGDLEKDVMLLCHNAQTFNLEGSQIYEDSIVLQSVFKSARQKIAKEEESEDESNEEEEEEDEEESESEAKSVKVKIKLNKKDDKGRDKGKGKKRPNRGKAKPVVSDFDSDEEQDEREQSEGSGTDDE

Row | Compound | DC50 (HiBit-BRM fusion protein) [µM] | BRM HiBit Degradation Maximum measured (HiBit-BRM fusion protein) | DC50 [1] [µM] | Dmax [1] [%]
1 | CS(=O)(=O)n1ccc(C(=O)N[C@@H](CCOCCCC(=O)NCCOCc2cccc(COCCOc3ccc4c(c3)C(=O)N(C3CCC(=O)NC3=O)C4=O)c2)C(=O)Nc2nc(-c3ccccc3)cs2)c1 (stereo partly drawn) [Compound 261, (2S)-4-(3-[[2-([3-[(2-[[2-(2,6-dioxopiperidin-3-yl)-1,3-dioxoisoindol-5-yl]oxy]ethoxy)methyl]phenyl]methoxy)ethyl]carbamoyl]propoxy)-2-[(1-methanesulfonylpyrrol-3-yl)formamido]-N-(4-phenyl-1,3-thiazol-2-yl)butanamide] | > 10 | C (‘C’ = Maximum degradation <50%) | > 10 | < 50
2 | CS(=O)(=O)n1ccc(C(=O)N[C@@H](CCOCCCC(=O)N2CCC3(CC2)CC(Oc2ccc4c(c2)C(=O)N(C2CCC(=O)NC2=O)C4=O)C3)C(=O)Nc2nc(-c3ccccc3)cs2)c1 (stereo partly drawn) [Compound 262, (2S)-4-[4-(2-[[2-(2,6-dioxopiperidin-3-yl)-1,3-dioxoisoindol-5-yl]oxy]-7-azaspiro[3.5]nonan-7-yl)-4-oxobutoxy]-2-[(1-methanesulfonylpyrrol-3-yl)formamido]-N-(4-phenyl-1,3-thiazol-2-yl)butanamide] | > 10 | C (‘C’ = Maximum degradation <50%) | > 10 | < 50
3 | CS(=O)(=O)n1ccc(C(=O)N[C@@H](CCOCCCC(=O)N2CCN(CCCC#Cc3ccc4c(c3)C(=O)N(C3CCC(=O)NC3=O)C4=O)CC2)C(=O)Nc2nc(-c3ccccc3)cs2)c1 (stereo partly drawn) [Compound 263, (2S)-4-[4-(4-[5-[2-(2,6-dioxopiperidin-3-yl)-1,3-dioxoisoindol-5-yl]pent-4-yn-1-yl]piperazin-1-yl)-4-oxobutoxy]-2-[(1-methanesulfonylpyrrol-3-yl)formamido]-N-(4-phenyl-1,3-thiazol-2-yl)butanamide; formic acid] | > 10 | C (‘C’ = Maximum degradation <50%) | > 10 | < 50
4 | Cc1ncsc1-c1ccc(CNC(=O)[C@@H]2C[C@@H](O)CN2C(=O)[C@@H](NC(=O)CCCCC(=O)NCCCC[C@H](NC(=O)c2ccn(S(C)(=O)=O)c2)C(=O)Nc2nc(-c3ccccc3)cs2)C(C)(C)C)cc1 [Compound 264, N-[(2S)-1-[(2S,4R)-4-hydroxy-2-([[4-(4-methyl-1,3-thiazol-5-yl)phenyl]methyl]carbamoyl)pyrrolidin-1-yl]-3,3-dimethyl-1-oxobutan-2-yl]-N-[(5S)-5-[(1-methanesulfonylpyrrol-3-yl)formamido]-5-[(4-phenyl-1,3-thiazol-2-yl)carbamoyl]pentyl]hexanediamide] | > 10 | C (‘C’ = Maximum degradation <50%) | > 10 | < 50
5 | Cc1ncsc1-c1ccc(CNC(=O)[C@@H]2C[C@@H](O)CN2C(=O)[C@@H](NC(=O)CCCCCCCCCCC(=O)NCCCC[C@H](NC(=O)c2ccn(S(C)(=O)=O)c2)C(=O)Nc2nc(-c3ccccc3)cs2)C(C)(C)C)cc1 [Compound 265] | > 10 | C (‘C’ = Maximum degradation <50%) | > 10 | < 50
6 | Cc1ncsc1-c1ccc(CNC(=O)[C@@H]2C[C@@H](O)CN2C(=O)[C@@H](NC(=O)CCCCCCC(=O)NCCCC[C@H](NC(=O)c2ccn(S(C)(=O)=O)c2)C(=O)Nc2nc(-c3ccccc3)cs2)C(C)(C)C)cc1 [Compound 266, N′-[(2S)-1-[(2S,4R)-4-hydroxy-2-([[4-(4-methyl-1,3-thiazol-5-yl)phenyl]methyl]carbamoyl)pyrrolidin-1-yl]-3,3-dimethyl-1-oxobutan-2-yl]-N-[(5S)-5-[(1-methanesulfonylpyrrol-3-yl)formamido]-5-[(4-phenyl-1,3-thiazol-2-yl)carbamoyl]pentyl]octanediamide] | > 10 | C (‘C’ = Maximum degradation <50%) | > 10 | < 50
7 | Cc1ncsc1-c1ccc(CNC(=O)[C@@H]2C[C@@H](O)CN2C(=O)[C@@H](NC(=O)CCCCCCCCCCCCC(=O)NCCCC[C@H](NC(=O)c2ccn(S(C)(=O)=O)c2)C(=O)Nc2nc(-c3ccccc3)cs2)C(C)(C)C)cc1 [Compound 267, N-[(2S)-1-[(2S,4R)-4-hydroxy-2-([[4-(4-methyl-1,3-thiazol-5-yl)phenyl]methyl]carbamoyl)pyrrolidin-1-yl]-3,3-dimethyl-1-oxobutan-2-yl]-N-[(5S)-5-[(1-methanesulf-onylpyrrol-3-yl)formamido]-5-[(4-phenyl-1,3-thiazol-2-yl)carbamoyl]pentyl]tetradecanediamide] | > 10 | C (‘C’ = Maximum degradation <50%) | > 10 | < 50
8 | Cc1ncsc1-c1ccc(CNC(=O)[C@@H]2C[C@@H](O)CN2C(=O)[C@@H](NC(=O)CCCCCCCCC(=O)NCCCC[C@H](NC(=O)c2ccn(S(C)(=O)=O)c2)C(=O)Nc2nc(-c3ccccc3)cs2)C(C)(C)C)cc1 [Compound 268] | > 10 | C (‘C’ = Maximum degradation <50%) | > 10 | < 50

Continued, values first:

Row | DC50 (HiBit-BRM fusion protein) [µM] | BRM HiBit Degradation Maximum measured (HiBit-BRM fusion protein) | DC50 [1] [µM] | Dmax [1] [%] | Compound
9 | > 10 | C (‘C’ = Maximum degradation <50%) | > 10 | < 50 | CS(=O)(=O)n1ccc(C(=O)N[C@@H](CCCCNC(=O)C2CCN(CCOc3ccc4c(c3)C(=O)N(C3CCC(=O)NC3=O)C4=O)CC2)C(=O)Nc2nc(-c3ccccc3)cs2)c1 (stereo partly drawn) [Compound 269]
10 | > 10 | C (‘C’ = Maximum degradation <50%) | > 10 | < 50 | CS(=O)(=O)n1ccc(C(=O)N[C@@H](CCOCCCC(=O)NCCOc2cccc(OCCNc3cccc4c3C(=O)N(C3CCC(=O)NC3=O)C4=O)c2)C(=O)Nc2nc(-c3ccccc3)cs2)c1 (stereo partly drawn) [Compound 270, (2S)-4-[3-([2-[3-(2-[[2-(2,6-dioxopiperidin-3-yl)-1,3-dioxoisoindol-4-yl]amino]ethoxy)phenoxy]ethyl]carbamoyl)propoxy]-2-[(1-methanesulfonylpyrrol-3-yl)formamido]-N-(4-phenyl-1,3-thiazol-2-yl)butanamide]
11 | > 10 | C (‘C’ = Maximum degradation <50%) | > 10 | < 50 | CS(=O)(=O)n1ccc(C(=O)N[C@@H](CCOCCCC(=O)NCCCC#Cc2ccc3c(c2)C(=O)N(C2CCC(=O)NC2=O)C3=O)C(=O)Nc2nc(-c3ccccc3)cs2)c1 (stereo partly drawn) [Compound 271, (2S)-4-[3-([5-[2-(2,6-dioxopiperidin-3-yl)-1,3-dioxoisoindol-5-yl]pent-4-yn-1-yl]carbamoyl)propoxy]-2-[(1-methanesulfonylpyrrol-3-yl)formamido]-N-(4-phenyl-1,3-thiazol-2-yl)butanamide]
12 | > 10 | C (‘C’ = Maximum degradation <50%) | > 10 | < 50 | CS(=O)(=O)n1ccc(C(=O)N[C@@H](CCOCCCC(=O)NCCCC#Cc2cccc3c2C(=O)N(C2CCC(=O)NC2=O)C3=O)C(=O)Nc2nc(-c3ccccc3)cs2)c1 (stereo partly drawn) [Compound 272, (2S)-4-[3-([5-[2-(2,6-dioxopiperidin-3-yl)-1,3-dioxoisoindol-4-yl]pent-4-yn-1-yl]carbamoyl)propoxy]-2-[(1-methanesulfonylpyrrol-3-yl)formamido]-N-(4-phenyl-1,3-thiazol-2-yl)butanamide]
